Measurements reported in PubChem BioAssay (NCI).
Where “and” joins values, the source holds several entries; their conditions need not be identical. Equal entries are not always repeated.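 The compound was tested at five concentrations on cells cultured in 96-well plates, with a 48-hour exposure period. Here, GI50 denotes the concentration required for 50% inhibition of growth. TGI denotes the concentration required for complete inhibition of growth.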

Assays:
Assay in all cases: NCI tumour cell line growth inhibition, 48 h
SF-268 CNS = system: SF-268 CNS
M14 melanoma = system: M14 melanoma
UACC-62 melanoma = system: UACC-62 melanoma
IGROV1 ovarian = system: IGROV1 ovarian
HCT-116 colon = system: HCT-116 colon
SNB-75 CNS = system: SNB-75 CNS
OVCAR-4 ovarian = system: OVCAR-4 ovarian
EKVX NSCLC = system: EKVX NSCLC
CCRF-CEM leukemia = system: CCRF-CEM leukemia
MDA-MB-435 = system: MDA-MB-435
T-47D breast = system: T-47D breast

Compound | TGI (SF-268 CNS) [µM] | TGI (M14 melanoma) [µM] | TGI (UACC-62 melanoma) [µM] | TGI (IGROV1 ovarian) | TGI (HCT-116 colon) [µM] | TGI (SNB-75 CNS) [µM] | TGI (OVCAR-4 ovarian) [µM] | TGI (EKVX NSCLC) [µM] | TGI (CCRF-CEM leukemia) [µM] | TGI (MDA-MB-435) [µM] | GI50 (UACC-62 melanoma) | GI50 (IGROV1 ovarian) | TGI (T-47D breast) [µM] | GI50 (SF-268 CNS) [µM] | GI50 (MDA-MB-435) [µM] | GI50 (SNB-75 CNS) [µM] | GI50 (T-47D breast) [µM] | GI50 (OVCAR-4 ovarian) [µM] | GI50 (CCRF-CEM leukemia) [µM]
Cc1cccc2[s+]snc12 | > 100 | > 100 | > 100 | > 100 µM | > 100 | > 100 | > 100 | > 77.4 | > 65.1 | – | – | – | – | – | – | – | – | – | –
Cn1c(Nc2ccccc2)c(C=Nc2ccccc2)c(=O)n(C)c1=O | > 100 | > 100 | > 100 | > 100 µM | > 100 | – | > 100 | – | > 100 | > 100 | – | – | – | – | – | – | – | – | –
COC(=O)C1[C@@H](C(=O)OC)C12C=Cc1ccccc1C=C2 (stereo not given in full) | > 100 | > 100 | > 100 | > 100 µM | > 100 | – | – | > 100 | > 100 | – | – | – | – | – | – | – | – | – | –
C#C[C@]1(O)CCC2C3CCc4cc(Oc5nc(F)nc(-c6c7cc8ccccc8cc7c7n6CCS7)n5)ccc4C3CCC21C (stereo not given in full) | > 100 | 96 | 55.3 | > 100 µM | > 100 | > 100 | – | > 100 | > 100 | – | – | – | – | – | – | – | – | – | –
CCCn1c(SCC)c2cc3cc4ccccc4cc3cc2c1-c1nc(F)nc(F)n1 | > 100 | > 100 | – | > 100 µM | > 100 | > 100 | > 100 | > 100 | > 100 | – | – | – | – | – | – | – | – | – | –
CCOC(=O)c1c(-c2ccc(O)c(OC)c2)c(C#N)c(=S)n(C2OC(COC(C)=O)C(OC(C)=O)C(OC(C)=O)C2OC(C)=O)c1-c1ccccc1 (stereo not given) | > 100 | > 100 | > 100 | 55.5 µM and > 100 µM | > 100 | – | > 100 | > 100 | > 100 | > 100 | 45.4 µM and > 100 µM | 18 µM and 79.7 µM | – | – | – | – | – | – | –
O=c1[nH]nc(Cc2ccccc2)n1/N=C/c1ccccc1Cl | > 100 | – | > 100 | > 100 µM | > 100 | – | > 100 | > 100 | – | > 100 | – | – | > 100 | – | – | – | – | – | –
CCCN1CN(C(C(=O)N[C@@H]2C(=O)N3C(C(=O)O)=C(C)CSC23)c2ccc(O)cc2)CSC1=S (stereo not given in full) | > 100 | > 100 | > 100 | > 100 µM | > 100 | > 100 | > 100 | > 100 | > 100 | – | – | – | – | – | – | – | – | – | –
COC(=O)c1ccccc1/C=C1\Cc2cc(C)cc(C)c2C1=O | > 100 | – | > 100 | > 100 µM | > 100 | > 100 | – | > 100 | > 100 | – | – | – | > 100 | – | – | – | – | – | –
CCN(CC)C(=S)SNCc1ccc(S(N)(=O)=O)cc1 | 26.7 | 25.1 | 83.1 | 26.6 µM | 27.4 | 39.5 | 48.1 | 43.5 | – | > 50.9 | – | – | 47.7 | – | – | – | – | – | –
c1cn2cc(-c3ccc4ncn(C5CCCCC5)c4c3)nc(-c3ccc4c(c3)ncn4C3CCCCC3)c2n1 | 3.15 | – | – | – | – | 3.07 | 6.3 | – | 6.08 | 3.54 | – | – | 4.69 | 1.59 | 1.77 | 1.39 | 1.9 | 2.17 | 1.69
NC(=O)C(c1ccccc1)N1OC2C(=O)N(c3cccc4ccccc34)C(=O)C2C1c1c2ccccc2c(Cl)c2ccccc12 (stereo not given) | 25.1 | 15.8 | 13.8 | 39.8 µM | 3.05 | 20.4 | 33.2 | 30 | – | 22.7 | – | – | 31.7 | – | – | – | – | – | –
CN(C(=O)Cc1ccc(Cl)c(Cl)c1)[C@@H]1CCCC[C@H]1[N+]1(C)CC=CC1 | > 100 | > 100 | > 100 | > 100 µM | > 100 | – | > 100 | > 100 | – | > 100 | – | – | > 100 | – | – | – | – | – | –
COC(=O)C1=C(\c2ccccc2)c2ccccc2C(=O)N(C2CCCCC2)/C=C\1 | > 100 | > 100 | – | > 100 µM | 64 | > 100 | > 100 | > 100 | 75.5 | 45.1 | – | – | – | – | – | – | – | – | –
COC(=O)C(=O)C(C(=O)C(=O)Nc1ccccc1C(C)=O)c1nc2ccc(C(=O)c3ccccc3)cc2[nH]c1=O (stereo not given) | > 100 | > 100 | > 100 | > 100 µM | > 100 | > 100 | > 100 | > 100 | – | – | – | – | > 100 | – | – | – | – | – | –
O=C(c1cccs1)N(C(=S)N1CCN(c2ccccn2)CC1)C1CCCCC1 | > 100 | > 100 | > 100 | > 100 µM | > 100 | > 100 | > 100 | – | > 100 | – | – | – | – | – | – | – | – | – | –
NC1=NN(c2ccccc2)C2(O)c3ccncc3C3=NN(c4ccccc4)C(=O)C132 (stereo not given) | > 100 | > 100 | > 100 | > 100 µM | > 100 | > 100 | > 100 | > 100 | – | > 100 | – | – | > 100 | – | – | – | – | – | –

Compound | TGI (SF-268 CNS) [µM] | TGI (M14 melanoma) [µM] | TGI (UACC-62 melanoma) [µM] | TGI (IGROV1 ovarian) | TGI (HCT-116 colon) [µM] | TGI (SNB-75 CNS) [µM] | TGI (OVCAR-4 ovarian) [µM] | TGI (EKVX NSCLC) [µM] | TGI (CCRF-CEM leukemia) [µM] | TGI (MDA-MB-435) [µM] | GI50 (UACC-62 melanoma) | GI50 (IGROV1 ovarian) | TGI (T-47D breast) [µM] | GI50 (SF-268 CNS) [µM] | GI50 (MDA-MB-435) [µM] | GI50 (SNB-75 CNS) [µM] | GI50 (T-47D breast) [µM] | GI50 (OVCAR-4 ovarian) [µM] | GI50 (CCRF-CEM leukemia) [µM]
COc1cc(NP(=O)(Oc2ccccc2)Oc2ccccc2)ccc1Nc1c2ccccc2nc2c1[nH]c1ccccc12 | > 100 | 7.02 | 8.58 | > 100 µM | 63.8 | 5.7 | 15.3 | 44.9 | – | 21.5 | – | – | 12.7 | – | – | – | – | – | –
O=C(C[n+]1ccccc1)N=N/C(C(=O)Nc1c(Cl)c(O)c2ccccc2c1O)=C1/C(=O)Oc2cc(O)ccc2C1=O | > 100 | 14.7 | 4.14 | 14.7 µM | 12.1 | 39.4 | 8.84 | 29.3 | > 100 | – | – | – | 32.1 | – | – | – | – | – | –
O=C(O)c1ccccc1C(=O)Nn1cnnc1 | > 100 | > 100 | > 100 | > 100 µM | > 100 | > 100 | > 100 | > 100 | > 100 | > 100 | – | – | – | – | – | – | – | – | –
Cc1ccc(SCC(CF)OCn2cc(F)c(=O)[nH]c2=O)cc1 (stereo not given) | > 100 | > 100 | – | > 100 µM | > 100 | – | > 100 | > 100 | > 100 | > 100 | – | – | > 100 | – | – | – | – | – | –
C[C@H]1C[C@H](C)c2ccccc2N(C)C1=Nc1ccccc1 | > 100 | 56.2 | > 100 | 78 µM | 46.3 | > 100 | > 100 | > 100 | – | 52.8 | – | – | > 100 | – | – | – | – | – | –
O=C1C(=O)c2ccccc2C(O)=C1CN(CCCl)CCCl | > 100 | > 100 | > 100 | 77.9 µM | > 100 | > 100 | > 100 | > 100 | > 100 | – | – | – | – | – | – | – | – | – | –
COC1=C(N2CC2)C(=O)c2nc3n(c2C1=O)CCC3 | 5.23 | 0.619 | 3.12 | 3.15 µM | 1.93 | 3.57 | 0.526 | – | 1.33 | 3.32 | – | – | 4.15 | – | – | – | – | – | –
CC(=O)OCC1OC(N2C(C)=C(C(C)=O)C(c3ccco3)C(C#N)=C2S)C(OC(C)=O)C(OC(C)=O)C1OC(C)=O (stereo not given) | > 100 | > 100 | > 100 | > 100 µM | > 100 | > 100 | > 100 | – | > 100 | > 100 | – | – | > 100 | – | – | – | – | – | –
CCCCCC(CO)C(O)(C(F)(F)F)C(F)(F)F (stereo not given) | > 10 | > 10 | > 10 | > 10 µM | > 10 | > 10 | > 10 | > 10 | – | > 10 | – | – | > 10 | – | – | – | – | – | –
N#Cc1c(Cl)/c(=C/O)c(=O)n2c1nc1ccccc12 | > 100 | > 100 | > 100 | > 100 µM | > 100 | > 100 | > 100 | > 100 | > 100 | > 100 | – | – | – | – | – | – | – | – | –
O=C1CCC2CCC1C2 (stereo not given) | > 100 | > 100 | > 100 | – | > 100 | > 100 | > 100 | – | > 100 | > 100 | – | – | > 100 | – | – | – | – | – | –
Cc1nn(-c2ccccc2)c2[nH]c(=S)cnc12 | > 100 | > 100 | > 100 | > 100 µM | > 100 | – | > 100 | > 100 | > 100 | > 100 | – | – | > 100 | – | – | – | – | – | –
[N-]=[NH+]CC(=O)OC(COCc1ccccc1)COCc1ccccc1 | > 100 | – | > 100 | > 100 µM | > 100 | – | > 100 | > 100 | > 100 | > 100 | – | – | – | – | – | – | – | – | –
O=[N+]([O-])c1ccc2[nH]ncc2c1Cl | – | – | > 100 | 39.1 µM | 80.4 | > 100 | 85.5 | 53.8 | > 100 | > 100 | – | – | 44.4 | – | – | – | – | – | –
COc1cc(C=Nc2ccc(C(C)C)cc2)cc(OC)c1OC | > 100 | > 100 | > 100 | > 100 µM | > 100 | > 100 | > 100 | > 100 | > 100 | – | – | – | – | – | – | – | – | – | –
COc1cc(C2C3=C(COC3=O)Oc3cc4c(cc32)OCO4)ccc1OC(C)=O (stereo not given) | > 59.5 | > 100 | > 100 | – | > 100 | 0.585 | > 29.8 | > 100 | > 49.6 | – | – | – | > 100 | – | – | – | – | – | –
